The target of test [1] is T1, Voltage-gated inwardly rectifying potassium channel KCNH3 (Homo sapiens) (UniProt Q9ULD8).
T1 sequence (whole entry): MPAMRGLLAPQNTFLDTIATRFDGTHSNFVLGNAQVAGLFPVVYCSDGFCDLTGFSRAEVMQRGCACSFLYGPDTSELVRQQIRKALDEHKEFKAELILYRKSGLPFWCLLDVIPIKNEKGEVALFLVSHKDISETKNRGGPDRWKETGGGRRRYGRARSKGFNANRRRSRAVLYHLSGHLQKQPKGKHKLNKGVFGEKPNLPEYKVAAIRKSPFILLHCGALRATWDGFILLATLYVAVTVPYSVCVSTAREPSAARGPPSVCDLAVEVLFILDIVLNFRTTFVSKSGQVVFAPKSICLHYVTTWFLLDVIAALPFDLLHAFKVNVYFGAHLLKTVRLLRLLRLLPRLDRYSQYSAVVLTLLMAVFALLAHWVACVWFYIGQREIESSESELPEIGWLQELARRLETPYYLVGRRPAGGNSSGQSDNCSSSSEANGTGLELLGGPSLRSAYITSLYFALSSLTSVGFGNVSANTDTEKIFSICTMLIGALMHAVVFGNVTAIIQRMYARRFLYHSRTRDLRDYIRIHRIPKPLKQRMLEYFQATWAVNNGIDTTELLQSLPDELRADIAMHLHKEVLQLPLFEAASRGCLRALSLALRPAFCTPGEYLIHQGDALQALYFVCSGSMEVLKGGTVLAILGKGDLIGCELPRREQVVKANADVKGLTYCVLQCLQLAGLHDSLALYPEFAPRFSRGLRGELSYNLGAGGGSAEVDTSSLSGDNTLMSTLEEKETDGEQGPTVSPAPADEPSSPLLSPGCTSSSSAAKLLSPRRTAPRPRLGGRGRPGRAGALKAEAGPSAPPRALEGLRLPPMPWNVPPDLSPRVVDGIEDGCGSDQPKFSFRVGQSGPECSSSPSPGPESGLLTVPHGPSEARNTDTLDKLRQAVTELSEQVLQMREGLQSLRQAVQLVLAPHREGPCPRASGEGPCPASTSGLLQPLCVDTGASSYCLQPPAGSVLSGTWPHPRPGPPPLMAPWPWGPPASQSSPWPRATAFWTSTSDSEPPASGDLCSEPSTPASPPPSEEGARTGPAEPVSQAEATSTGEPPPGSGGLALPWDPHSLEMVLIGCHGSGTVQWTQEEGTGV
The test can be described thus: Inhibition of BEC1 (unknown origin) expressed in dihydrofolate reductase-deficient CHO cells assessed as decrease in KCl-induced intracellular 86Rb ion release at 3 uM after 20 mins relative to control. Type of test: cell-based.

The next test has as its system Mus musculus. The test can be described thus: Inhibition of electroconvulsive shock-induced amnesia in ddy mouse at 3 mg/kg, ip by passive avoidance test. Format: functional, organism-based.

Active and inactive are the calls of the source. The rule behind the calls is not given here.

For `O=[N+]([O-])c1ccc(CCNc2nc(Nc3ccccc3)nc(Nc3ccccc3)n2)cc1`, the inhibition (in general, the share of the control response that was lost under treatment) in test [1] was 33%. On to `COc1ccc(CNc2nc(Nc3ccccc3)nc(Nc3ccccc3)n2)cc1`, for which the inhibition in test [1] was found to be 31%. Still for that read-out and setting: the result for `CCOC(=O)CCCNc1nc(Nc2ccccc2)nc(Nc2ccccc2)n1` reads 29%.

As to `Fc1ccc(Nc2nc(NCc3ccnc(F)c3)nc(Nc3ccccc3)n2)cc1`, in the test with Mus musculus, the inhibition result was “Active”. Regarding `O=C1NCCCCC1Nc1nc(Nc2ccccc2)nc(Nc2ccccc2)n1` (stereo not drawn), the inhibition in test [1] amounted to 23%. Regarding `CSC1CCC[C@H]1Nc1nc(Nc2ccccc2)nc(Nc2ccccc2)n1` (stereo partly drawn), in test [1], the inhibition is 34%. The same measure, in the same setting: the result for `Cc1c(O)cccc1Nc1nc(Nc2ccccc2)nc(Nc2ccccc2)n1` reads 37%; that for `Cc1ccc(CNc2nc(Nc3ccccc3)nc(Nc3ccccc3)n2)cc1`, 35%. Regarding `c1ccc(Nc2nc(Nc3ccccc3)nc(NC3CCCC3)n2)cc1`, the inhibition in test [1] was determined as 19%. Consider `Cc1cnc(CNc2nc(Nc3ccccc3)nc(Nc3ccccc3)n2)cn1`, for which the inhibition in test [1] worked out at 29%. The same measure, in the same setting: the figure for `c1ccc(Nc2nc(Nc3ccccc3)nc(Nc3ccc4c(c3)OCCO4)n2)cc1` is 15%; for `OC1CCCCC1Nc1nc(Nc2ccccc2)nc(Nc2ccccc2)n1` (stereo not drawn) it is 23%. Regarding `c1ccc(Nc2nc(NCCc3cccs3)nc(Nc3ccccc3)n2)cc1`, the inhibition in test [1] turned out to be 10%. On to `CC(C)Nc1nc(Nc2ccccc2)nc(Nc2ccc(Br)cc2)n1`, for which, in test [1], the inhibition amounted to 27%. Consider `O=C1NCCCC[C@@H]1Nc1nc(Nc2ccccc2)nc(Nc2ccccc2)n1`, for which the inhibition in test [1] was 10%. On to `CC(C)Nc1nc(Nc2ccccc2)nc(Nc2ccc3c(c2)OCCO3)n1`, for which the inhibition in test [1] turned out to be 40%. In the case of `Brc1ccc(CNc2nc(Nc3ccccc3)nc(Nc3ccccc3)n2)cc1`, the inhibition in test [1] was 33%. Still for that read-out and setting: the figure for `OCCc1ccccc1Nc1nc(Nc2ccccc2)nc(Nc2ccccc2)n1` is 40%. The same measure, in the same setting: the result for `CCOC(=O)CNc1nc(Nc2ccccc2)nc(Nc2ccccc2)n1` reads 21%; that for `c1ccc(Nc2nc(NCC3CC3)nc(Nc3ccccc3)n2)cc1`, 51%; that for `O=[N+]([O-])c1cccc(Nc2nc(Nc3ccccc3)nc(Nc3ccccc3)n2)c1`, 12%. The same measure, in the same setting: the figure for `Clc1ccc(CNc2nc(Nc3ccccc3)nc(Nc3ccccc3)n2)cc1` is 45%. Consider `NC(=O)CNc1nc(Nc2ccccc2)nc(Nc2ccccc2)n1`, for which, in test [1], the inhibition stood at 22%. The same measure, in the same setting: the result for `CC(C)Nc1nc(Nc2ccc3c(c2)OCCO3)nc(Nc2ccc3c(c2)OCCO3)n1` reads 11%. On the same count and under the same terms, the result for `Fc1cccc(CNc2nc(Nc3ccccc3)nc(Nc3ccccc3)n2)c1` reads 34%; that for `c1ccc(Nc2nc(NCc3cccnc3)nc(Nc3ccccc3)n2)cc1`, 59%. Still for that read-out and setting: the result for `CSc1ccccc1Nc1nc(Nc2ccccc2)nc(Nc2ccccc2)n1` reads 17%; that for `CC(C)Nc1nc(Nc2ccc(Br)cc2)nc(Nc2ccc(Br)cc2)n1`, 11%. As for `CC(C)Nc1nc(Nc2ccccc2)nc(Nc2ccc3c(c2)CCC3)n1`, the inhibition in test [1] worked out at 18%. On the same count and under the same terms, the figure for `Cc1cc(O)ccc1Nc1nc(Nc2ccccc2)nc(Nc2ccccc2)n1` is 31%; for `CCOC(=O)C(C)Nc1nc(Nc2ccccc2)nc(Nc2ccccc2)n1` (stereo not drawn) it is 36%. Same read-out and setting: the figure for `CSC1COC[C@H]1Nc1nc(Nc2ccccc2)nc(Nc2ccccc2)n1` (stereo partly drawn) is 49%; for `Cc1ccc([N+](=O)[O-])cc1Nc1nc(Nc2ccccc2)nc(Nc2ccccc2)n1` it is 22%; for `CSc1ccc(Nc2nc(Nc3ccc(SC)cc3)nc(NC(C)C)n2)cc1` it is 10%. Same read-out and setting: the figure for `CC(C)Nc1nc(Nc2ccccc2)nc(Nc2ccc(F)cc2)n1` is 25%; for `Fc1ccccc1CNc1nc(Nc2ccccc2)nc(Nc2ccccc2)n1` it is 33%; for `C=CCNc1nc(Nc2ccccc2)nc(Nc2ccccc2)n1` it is 44%. For `OC[C@@H](CNc1nc(Nc2ccccc2)nc(Nc2ccccc2)n1)c1ccccc1`, in test [1], the inhibition was 50%.

(Values after ChEMBL document CHEMBL3879888, “2,4,6-triamino-1,3,5-triazine derivative” (2008).)
